Experimental data taken from the RepoRT retention time repository.

experiment: HILIC, Waters ACQUITY UPLC BEH Amide, 100 × 2.1 mm, 1.7 µm; A: water + 0.125% formic acid + 10 mM ammonium formate; B: 5% water + 95% acetonitrile + 0.125% formic acid + 10 mM ammonium formate; gradient (min/%B) 0/100 2/100 7.7/70 9.5/40 10.25/30 12.75/100 17/100; details: stereoisomer not certain

| LC retention time [min] | SMILES |
| --- | --- |
| 2.3 | CC(=O)N1CCCCCC1=O [N-Acetylcaprolactam] |
| 8.07 | CC(=O)NC(Cc1cnc[nH]1)C(=O)O (configuration not stated) [N-Acetylhistidine] |
| 7.01 | CC(=O)NC1C(O)OC(CO)C(O)C1O (configuration not stated) [N-Acetylmannosamine] |
| 3.23 | CSCCC(NC(C)=O)C(=O)O (configuration not stated) [N-Acetylmethionine] |
| 9.26 | CC(=O)NC1C(O)CC(O)(C(=O)O)OC1C(O)C(O)CO (configuration not stated) [N-Acetylneuraminic acid] |
| 7.67 | CC(=O)NC(CO)C(=O)O (configuration not stated) [N-Acetylserine] |
| 7.67 | O=C(O)CNC(=O)OCc1ccccc1 [N-Benzyloxycarbonylglycine] |
| 1.28 | CC(C)CC(NC(=O)OCc1ccccc1)C(=O)O (configuration not stated) [N-Carbobenzyloxyleucine] |
| 3.93 | CSCCC(NC=O)C(=O)O (configuration not stated) [N-Formylmethionine] |
| 3.6 | CC(C)C(=O)NCC(=O)O [N-Isobutyrylglycine] |
| 8.32 | CNC(CCC(=O)O)C(=O)O (configuration not stated) [N-Methylglutamic acid] |
| 9.36 | CNCCCCC(N)C(=O)O (configuration not stated) [N-Methyllysine] |
| 6.22 | CNC(Cc1ccccc1)C(=O)O (configuration not stated) [N-Methylphenylalanine] |
| 7.11 | CN1CCCC1C(=O)O (configuration not stated) [N-Methylproline] |
| 7.68 | CNC(C(=O)O)C(C)O (configuration not stated) [N-Methylthreonine] |
| 6.99 | CNC(C(=O)O)C(C)C (configuration not stated) [N-Methylvaline] |
| 8.31 | CC(=O)NC(CCCN)C(=O)O [N-alpha-Acetyl-L-ornithine] |
| 8.03 | CC(=O)NCCCCC(N)C(=O)O (configuration not stated) [N-epsilon-Acetyllysine] |
| 1.32 | COc1ccc(NC=O)c(C(=O)CCNC(C)=O)c1 [N-gamma-Acetyl-N-2-formyl-5-methoxykynurenamine] |
| 6 | CC(=O)NCCc1cnc[nH]1 [N-omega-Acetylhistamine] |

More lines, now with the values behind:

| SMILES | LC retention time [min] |
| --- | --- |
| CC(=O)NC(C)C(=O)O (configuration not stated) [N-Acetylalanine] | 4.83 |
| CC(=O)NC(CS)C(=O)O (configuration not stated) [N-Acetylcysteine] | 5.28 |
| CC(=O)Nc1ccn(C2OC(CO)C(O)C2O)c(=O)n1 (configuration not stated) [N-Acetylcytidine] | 5.08 |
| CC(=O)NC(CCC(=O)O)C(=O)O (configuration not stated) [N-Acetylglutamic acid] | 7.67 |
| CC(=O)NC(CC(C)C)C(=O)O (configuration not stated) [N-Acetylleucine] | 2.29 |
| CC(=O)NC(Cc1ccccc1)C(=O)O (configuration not stated) [N-Acetylphenylalanine] | 2.61 |
| CC(=O)NC(Cc1c[nH]c2ccccc12)C(=O)O (configuration not stated) [N-Acetyltryptophan] | 2.81 |
| O=C(O)CNC(=O)C=Cc1ccccc1 [N-Cinnamoylglycine] | 2.95 |
| O=CNC1CCCCC1 [N-Cyclohexylformamide] | 1.2 |
| CC(C)CC(=O)NCC(=O)O [N-Isovalerylglycine] | 2.94 |
| CNC(C)C(=O)O (configuration not stated) [N-Methylalanine] | 7.67 |
| CNc1ccccc1 [N-Methylaniline] | 1.06 |
| CNc1ccccc1C(=O)O [N-Methylanthranilic acid] | 1.22 |
| CNC(CC(=O)O)C(=O)O (configuration not stated) [N-Methylaspartic acid] | 2.53 |
| CNC(Cc1cnc[nH]1)C(=O)O (configuration not stated) [N-Methylhistidine] | 9.47 |
| CCC(C)C(NC)C(=O)O (configuration not stated) [N-Methylisoleucine] | 6.44 |
| CNC(CC(C)C)C(=O)O (configuration not stated) [N-Methylleucine] | 6.45 |
| CN1CCC(c2ccc(F)cc2)C(COc2ccc3c(c2)OCO3)C1 (configuration not stated) [N-Methylparoxetine] | 2.2 |
| CNC(Cc1ccc(O)cc1)C(=O)O (configuration not stated) [N-Methyltyrosine] | 6.79 |
| CNCCc1cnc[nH]1 [N-alpha-methylhistamine] | 7.48 |
| CC(=O)N[C@@H](CCCCN)C(=O)O [N.alpha.-Acetyl-L-lysine] | 8.15 |
| CN[C@@H](CCCCN)C(=O)O [N.alpha.-Methyl-L-lysine] | 7.35 |
